Reference: US11666558B2, “Methods of treating intraocular pressure with activators of Tie-2” (EyePoint Pharmaceuticals, Inc., priority 2015, dated 2023)
Read-outs that look alike come from different tables or passages of the source.

Assay: Ocular tissue concentrations (aqueous humor, vitreous humor, iris, retina, choroid, cornea) after topical ocular, subcutaneous and intravitreal administration
Type: in vivo, New Zealand White rabbits
Conditions: New Zealand White, rabbit; for concentration at 6 h / concentration at 24 h / concentration at 48 h / concentration at 72 h: other: intravitreal, 2.5 mg/eye
Description: To measure the concentration of Compound 1 in plasma and ocular tissues following topical ocular, subcutaneous, and intravitreal administration, New Zealand White rabbits were administered Compound 1, and plasma and ocular samples were collected at pre-determined time points. Compound 1 formulations were prepared fresh on each day of dosing.
Ocular tissue samples from both eyes of each animal were collected and weights were recorded. Plasma and ocular tissue sample concentrations of Compound 1 were determined by LC-MS/MS.
New Zealand White rabbits weighing 2.5 to 3.5 kg were used on this study. Rabbits were housed one per cage. Animals were not fasted and only healthy animals with no ocular illness were used. Two rabbits per group were sacrificed at each of four ocular tissue sampling time points for a total of eight rabbits per group.
Animals were anesthetized for ocular (topical) and intravitreal dosing following the 12IA7 IACUC protocol. Each rabbit received a bolus dose of test formulation either via topical ocular administration 3 times daily on Days 1 and 2 (at 0, 6, and 12 hours), and once on Day 3 (at 0 hours) into both eyes; via intravitreal administration into both eyes once on Day 1 (at 0 hours); or via subcutaneous administration 2 times daily on Days 1 and 2 (at 0 and 8 hours) and once daily on Day 3 (at 0 hours). Doses were given within an approximately 1 hour window each day where applicable.
On Day 1, for intravitreal administration, or on Day 3, for topical ocular and subcutaneous administration, at the appropriate ocular tissue collection time points, animals were euthanized and both eyes were enucleated immediately. Following enucleation, each eye was rinsed with phosphate-buffered saline. Ocular tissue samples from both eyes of each animal were collected at predetermined time points and weights were recorded. All the samples were frozen immediately on dry ice, and stored at −60° C. to −80° C. pending bioanalysis.
An LC-MS/MS method was developed for the determination of Compound 1 in rabbit aqueous tissues (plasma, aqueous and vitreous humor) and solid ocular tissue samples. A pre-study standard curve was analyzed to determine the specificity, range, and lower limit of quantitation of the method. Plasma and tissue homogenate study samples were extracted and analyzed. All the samples were treated identically to the standards.
One eight-point standard curve was used in each analytical batch. To be accepted, each batch must have had at least five of eight standards with accuracy within ±20% of nominal, except at the lower limit of quantification (LLOQ), where ±25% was acceptable.
Concentration versus time data is plotted in FIGS. 3-16. All data are expressed as ng/g of the free drug. Samples that were below the limit of quantitation (0.2 ng/mL) were not used in the calculation of averages.

[1] = iris homogenate, Iris homogenate, OD, sodium salt, intravitreal 2.5 mg/eye, Group 4, read-out: Iris Conc. (ng/mL) OD
[2] = iris homogenate, Iris homogenate, OS, sodium salt, intravitreal 2.5 mg/eye, Group 4, read-out: Iris Conc. (ng/mL) OS
[3] = iris homogenate, Iris homogenate, left eye, intravitreal 2.5 mg/eye (group 5), individual animals, read-out: Conc. (ng/mL) OS
[4] = iris homogenate, Iris homogenate, right eye, intravitreal 2.5 mg/eye (group 5), individual animals, read-out: Conc. (ng/mL) OD
[5] = iris homogenate, subcutaneous, 5 mg/kg/dose, Iris homogenate, OD, sodium salt, subcutaneous 5 mg/kg/dose, Group 2, read-out: Iris Conc. (ng/mL) OD
[6] = iris homogenate, subcutaneous, 5 mg/kg/dose, Iris homogenate, OS, free acid, subcutaneous 5 mg/kg/dose, Group 3, read-out: Iris Conc. (ng/mL) OS
[7] = iris homogenate, subcutaneous, 5 mg/kg/dose, Iris homogenate, OS, sodium salt, subcutaneous 5 mg/kg/dose, Group 2, read-out: Iris Conc. (ng/mL) OS
[8] = iris homogenate, subcutaneous, 5 mg/kg/dose, TABLE 16: Iris homogenate, OS, free acid, subcutaneous 5 mg/kg/dose, Group 3, read-out: Iris Conc. (ng/mL) OS
[9] = iris, Iris, OD, sodium salt, intravitreal 2.5 mg/eye, Group 4, read-out: Iris Conc. (ng/g) OD
[10] = iris, Iris, OS, sodium salt, intravitreal 2.5 mg/eye, Group 4, read-out: Iris Conc. (ng/g) OS
[11] = iris, Iris, average, intravitreal 2.5 mg/eye (group 5), read-out: Avg.
[12] = iris, Iris, left eye, intravitreal 2.5 mg/eye (group 5), individual animals, read-out: Conc. (ng/g) OS
[13] = iris, Iris, right eye, intravitreal 2.5 mg/eye (group 5), individual animals, read-out: Conc. (ng/g) OD
[14] = iris, Iris, sodium salt, intravitreal 2.5 mg/eye, Group 4, read-out: Iris Avg.
[15] = iris, subcutaneous, 5 mg/kg/dose, Iris, OD, sodium salt, subcutaneous 5 mg/kg/dose, Group 2, read-out: Iris Conc. (ng/g) OD
[16] = iris, subcutaneous, 5 mg/kg/dose, Iris, OS, free acid, subcutaneous 5 mg/kg/dose, Group 3, read-out: Iris Conc. (ng/g) OS
[17] = iris, subcutaneous, 5 mg/kg/dose, Iris, free acid, subcutaneous 5 mg/kg/dose, Group 3, read-out: Iris Average
[18] = iris, subcutaneous, 5 mg/kg/dose, Iris, sodium salt, subcutaneous 5 mg/kg/dose, Group 2, read-out: Iris Average
[19] = iris, subcutaneous, 5 mg/kg/dose, Iris, OS, sodium salt, subcutaneous 5 mg/kg/dose, Group 2, read-out: Iris Conc. (ng/g) OS
[20] = iris, subcutaneous, 5 mg/kg/dose, TABLE 16: Iris, OS, free acid, subcutaneous 5 mg/kg/dose, Group 3, read-out: Iris Conc. (ng/g) OS
[21] = iris, subcutaneous, 5 mg/kg/dose, TABLE 16: Iris, free acid, subcutaneous 5 mg/kg/dose, Group 3, read-out: Iris Average

concentration at 4 h (cornea, subcutaneous, 5 mg/kg/dose, TABLE 16: Cornea, OD, free acid, subcutaneous 5 mg/kg/dose, Group 3, read-out: Cornea Conc. (ng/g) OD): 10.4 ng/g
concentration at 4 h (cornea, subcutaneous, 5 mg/kg/dose, TABLE 16: Cornea, free acid, subcutaneous 5 mg/kg/dose, Group 3, read-out: Cornea Average): 15.8 ng/g
concentration at 6 h [1]: 35500 ng/mL
concentration at 6 h [2]: 34000 ng/mL
concentration at 6 h [3]: 13800 ng/mL
concentration at 6 h [4]: 18500 ng/mL
concentration at 24 h [1]: 6890 ng/mL
concentration at 24 h [3]: 14100 ng/mL
concentration at 24 h [4]: 7670 ng/mL
concentration at 48 h [1]: 2380 ng/mL
concentration at 48 h [2]: 1960 ng/mL
concentration at 48 h [3]: 1950 ng/mL
concentration at 48 h [4]: 1010 ng/mL
concentration at 72 h [1]: 169 ng/mL
concentration at 72 h [3]: 1800 ng/mL
concentration at 72 h [4]: 279 ng/mL
concentration at 0.5 h [5]: 27.7 ng/mL
concentration at 0.5 h [6]: 4.27 ng/mL
concentration at 1 h [5]: 11.4 ng/mL
concentration at 1 h [6]: 4.33 ng/mL
concentration at 1 h [7]: 8.87 ng/mL
concentration at 2 h (iris homogenate, subcutaneous, 5 mg/kg/dose, Iris homogenate, 2 hr, OD, free acid, subcutaneous 5 mg/kg/dose, Group 3, read-out: Iris Conc. (ng/mL) OD): 2.77 ng/mL
concentration at 2 h (iris homogenate, subcutaneous, 5 mg/kg/dose, Iris homogenate, 2 hr, OS, free acid, subcutaneous 5 mg/kg/dose, Group 3, read-out: Iris Conc. (ng/mL) OS): 2.68 ng/mL
concentration at 4 h (iris homogenate, subcutaneous, 5 mg/kg/dose, Iris homogenate, OD, free acid, subcutaneous 5 mg/kg/dose, Group 3, read-out: Iris Conc. (ng/mL) OD): 2.41 ng/mL
concentration at 4 hr [5]: 2.12 ng/mL
concentration at 4 h [6]: 1.54 ng/mL
concentration at 4 hr [7]: 3.1 ng/mL
concentration at 0.5 h [8]: 4.27 ng/mL
concentration at 1 h [8]: 4.33 ng/mL
concentration at 2 h (iris homogenate, subcutaneous, 5 mg/kg/dose, TABLE 16: Iris homogenate, 2 hr, OD, free acid, subcutaneous 5 mg/kg/dose, Group 3, read-out: Iris Conc. (ng/mL) OD): 2.77 ng/mL
concentration at 2 h (iris homogenate, subcutaneous, 5 mg/kg/dose, TABLE 16: Iris homogenate, 2 hr, OS, free acid, subcutaneous 5 mg/kg/dose, Group 3, read-out: Iris Conc. (ng/mL) OS): 2.68 ng/mL
concentration at 4 h (iris homogenate, subcutaneous, 5 mg/kg/dose, TABLE 16: Iris homogenate, OD, free acid, subcutaneous 5 mg/kg/dose, Group 3, read-out: Iris Conc. (ng/mL) OD): 2.41 ng/mL
concentration at 4 h [8]: 1.54 ng/mL
concentration at 6 h [9]: 390000 ng/g
concentration at 6 h [10]: 374000 ng/g
concentration at 6 h [11]: 211000 ng/g
concentration at 6 h [12]: 152000 ng/g
concentration at 6 h [13]: 204000 ng/g
concentration at 6 h [14]: 352000 ng/g
concentration at 24 h [9]: 75800 ng/g
concentration at 24 h [11]: 113000 ng/g
concentration at 24 h [12]: 155000 ng/g
concentration at 24 h [13]: 84400 ng/g
concentration at 24 h [14]: 141000 ng/g
concentration at 48 h [9]: 26200 ng/g
concentration at 48 h [10]: 21600 ng/g
concentration at 48 h [11]: 16800 ng/g
concentration at 48 h [12]: 21400 ng/g
concentration at 48 h [13]: 11100 ng/g
concentration at 48 h [14]: 24600 ng/g
concentration at 72 h [9]: 1860 ng/g
concentration at 72 h [11]: 10300 ng/g
concentration at 72 h [12]: 19800 ng/g
concentration at 72 h [13]: 3070 ng/g
concentration at 72 h [14]: 1550 ng/g
concentration at 0.5 h [15]: 305 ng/g
concentration at 0.5 h [16]: 47 ng/g
concentration at 0.5 h [17]: 50.3 ng/g
concentration at 0.5 h [18]: 459 ng/g
concentration at 1 h [15]: 125 ng/g
concentration at 1 h [16]: 47.6 ng/g
concentration at 1 h [19]: 97.6 ng/g
concentration at 1 h [17]: 58 ng/g
concentration at 1 h [18]: 94.7 ng/g
concentration at 2 h (iris, subcutaneous, 5 mg/kg/dose, Iris, 2 hr, OD, free acid, subcutaneous 5 mg/kg/dose, Group 3, read-out: Iris Conc. (ng/g) OD): 30.5 ng/g
concentration at 2 h (iris, subcutaneous, 5 mg/kg/dose, Iris, 2 hr, OS, free acid, subcutaneous 5 mg/kg/dose, Group 3, read-out: Iris Conc. (ng/g) OS): 29.5 ng/g
concentration at 2 h (iris, subcutaneous, 5 mg/kg/dose, Iris, 2 hr, free acid, subcutaneous 5 mg/kg/dose, Group 3, read-out: Iris Average): 27.6 ng/g
concentration at 2 hr (iris, subcutaneous, 5 mg/kg/dose, Iris, 2 hr, sodium salt, subcutaneous 5 mg/kg/dose, Group 2, read-out: Iris Average): 29.7 ng/g
concentration at 4 h (iris, subcutaneous, 5 mg/kg/dose, Iris, OD, free acid, subcutaneous 5 mg/kg/dose, Group 3, read-out: Iris Conc. (ng/g) OD): 26.5 ng/g
concentration at 4 hr [15]: 33.8 ng/g
concentration at 4 h [16]: 16.9 ng/g
concentration at 4 hr [19]: 34.1 ng/g
concentration at 4 h [17]: 17.5 ng/g
concentration at 4 hr [18]: 30.4 ng/g
concentration at 0.5 h [20]: 47 ng/g
concentration at 0.5 h [21]: 50.3 ng/g
concentration at 1 h [20]: 47.6 ng/g
concentration at 1 h [21]: 58 ng/g
Structure (SMILES): COC(=O)N[C@@H](Cc1ccccc1)C(=O)N[C@@H](Cc1ccc(NS(=O)(=O)O)cc1)c1csc(-c2cccs2)n1 [Compound 1]
